According to patent publication US7041812B2, “Labeled nucleoside polyphosphates” (Amersham Biosciences Corp, priority 2001, dated 2006):

Columns and labels:
[1] = test system: cloned DNA polymerase I (genetically engineered to eliminate 3′-5′ exonuclease activity, 5′-3′ exonuclease activity and discrimination against …); experiment: Rates of incorporation of dTPn-DDAO (n=3 or 4) by DNA polymerase; assay type: biochemical; details: 1 μM nucleotide, 100 nM primer annealed to template, shrimp alkaline phosphatase, 23° C., FIG. 2
Experimental: (§1) Reactions were assembled at room temperature (23° C.) using the deoxynucleotides of Example (1–5). Reactions contained primer template combinations having a single oligonucleotide primer (represented by SEQ ID NO: 1) annealed to an oligonucleotide template corresponding to SEQ ID NO: 2.
(§2) Reaction conditions: A 70 μl reaction containing 50 mM Tris, pH 8.0, 5% glycerol, 5 mM MgCl2, 0.01% tween-20, 0.25 units shrimp alkaline phosphatase, 100 nM primer annealed to template, and 1 μM ddTPn-DDAO was assembled in a quartz fluorescence ultra-microcuvet in a LS-55 Luminescence Spectrometer (Perkin Elmer), operated in time drive mode. Excitation and emission wavelengths are 620 nm and 655 nm respectively. Slit widths were […] for excitation slits, 15 nm for emission slits. The reaction was initiated by the addition of 0.35 μl (11 units) of a cloned DNA polymerase I (genetically engineered to eliminate 3′-5′ exonuclease activity, 5′-3′ exonuclease activity and discrimination against dideoxynucleotides) or MMLV reverse transcriptase, and 0.25 mM MnCl2.

[2] = biological target: T1, MMLV reverse transcriptase (Moloney murine leukemia virus, UniProt P03355); experiment: Rates of incorporation of dTPn-DDAO (n=3 or 4) by reverse transcriptase; assay type: biochemical; details: 1 μM nucleotide, 100 nM primer annealed to template, shrimp alkaline phosphatase, 23° C., FIG. 2
T1 construct: MMLV reverse transcriptase
Experimental: as §1, §2

Cc1cn([C@H]2CC(O)[C@@H](COP(=O)(O)OP(=O)(O)OP(=O)(O)OP(=O)(O)Oc3ccc4c(c3)C(C)(C)C3=C(Cl)C(=O)C(Cl)=CC3=N4)O2)c(=O)[nH]c1=O (some centres unmarked) [dT4P-DDAO, δ-9H(1,3-dichloro-9,9-dimethylacridin-2-one-7-yl)-deoxythymidine-5′-tetraphosphate]
rate of incorporation [1]: significantly higher than that of dT3P-DDAO
rate of incorporation [2]: significantly higher than that of dT3P-DDAO
